{
  "source": "paper PMC6173770",
  "about": "“Direct electrical quantification of glucose and asparagine from bodily fluids using nanopores” (Nature Communications, 2018)",
  "molecular_target": "T1, SBD1 (Lactococcus lactis, UniProt Q9CES5)",
  "T1 construct": "gene glnP; His tag cleaved off by TEV; expressed in E. coli MC1061; SEC purified",
  "T1 sequence (Q9CES5 27-251 limits assumed)": "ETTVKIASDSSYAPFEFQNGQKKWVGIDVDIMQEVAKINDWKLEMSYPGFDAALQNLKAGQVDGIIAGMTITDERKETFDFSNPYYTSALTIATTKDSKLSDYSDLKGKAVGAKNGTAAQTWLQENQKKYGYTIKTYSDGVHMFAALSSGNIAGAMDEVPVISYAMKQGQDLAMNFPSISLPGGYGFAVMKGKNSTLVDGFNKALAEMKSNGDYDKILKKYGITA",
  "assay": "single-molecule nanopore current (SBD1 trapped in ClyA-AS), closed fraction vs ligand, Hill fit n = […]",
  "assay_type": "binding",
  "conditions": "150 mM NaCl, 15 mM Tris-HCl, pH 7.5, 25 °C, -90 mV, asparagine in trans; read-out: Kd^app",
  "data": [
    {"smiles": "NC(=O)C[C@H](N)C(=O)O", "note": "[asparagine]", "values": [
      {"measurement": "Kd", "value": "500 ± 40", "unit": "nM"}
    ]}
  ]
}
